The source of these data is patent US9199946B2, “Pyrimidinone carboxamide inhibitors of endothelial lipase” (BRISTOL-MYERS SQUIBB COMPANY, priority 2012, dated 2015).

Molecules are shown by their SMILES.

The term IC50 denotes the concentration that inhibits the measured activity by half.

The first assay concerns the target T1, Endothelial lipase (EL) (Homo sapiens, UniProt Q9Y5X9).
T1 construct: HT-1080 cells, which were transformed by RAGE technology (Athersys) to overexpress endogenous EL; endogenous in cells; conditioned medium used as the enzyme source
T1 sequence (Q9Y5X9 21-500): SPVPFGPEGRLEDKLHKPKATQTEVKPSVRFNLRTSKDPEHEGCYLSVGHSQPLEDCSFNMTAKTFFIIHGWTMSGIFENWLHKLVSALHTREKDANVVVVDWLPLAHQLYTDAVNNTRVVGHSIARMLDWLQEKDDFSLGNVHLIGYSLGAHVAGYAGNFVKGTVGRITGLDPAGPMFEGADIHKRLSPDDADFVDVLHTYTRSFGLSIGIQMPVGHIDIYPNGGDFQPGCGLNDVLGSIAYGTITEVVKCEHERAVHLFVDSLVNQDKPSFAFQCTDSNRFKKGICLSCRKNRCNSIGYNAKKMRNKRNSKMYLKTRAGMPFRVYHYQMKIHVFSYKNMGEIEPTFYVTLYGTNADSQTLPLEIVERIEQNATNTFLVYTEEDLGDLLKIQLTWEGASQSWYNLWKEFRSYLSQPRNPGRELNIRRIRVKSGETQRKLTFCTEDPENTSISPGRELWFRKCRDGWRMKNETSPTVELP
The assay can be described thus: Endothelial lipase (EL) enzymatic assay with fluorescent substrate A10070 in DMPG vesicles. Format: biochemical. The note with it: conditioned media from HT-1080 cells overexpressing endogenous EL; 20 min preincubation at 37° C.; read-out: EL IC50. On the procedure: Endothelial lipase activity was measured using a fluorescent substrate, A10070, (Invitrogen, CA) doped into an artificial vesicle containing DMPG (Avanti Polar Lipids) as the excipient. Vesicles were prepared by combining 285 μL of 1 mM DMPG in a 1:1 mixture of MeOH and CHCl3 with 15 μL of 1 mM A10070 in a 1:1 mixture of MeOH and CHCl3. The mixture was dried under nitrogen and resuspended in 150 μL of 50 mM HEPES pH 8.0 buffer containing 100 mM NaCl and 0.2 mM EDTA. The sample was allowed to sit at rt for 15 min and then was sonicated 3×4 mins on ice with a Branson Sonicator using duty cycle 1. This preparation provides vesicles with a mole fraction of 0.05 for the FRET substrate.
The enzymatic assay was measured using white, opaque 96-well half area plates. Each well contained 60 μL of assay buffer (50 mM HEPES pH 8.0, 50 mM NaCl and 1 mM CaCl2) and 2 ul of a DMSO solution containing compound of interest. Conditioned media obtained from HT-1080 cells, which were transformed by RAGE technology (Athersys) to overexpress endogenous EL, was added and the reaction was allowed to incubate for 20 min at 37° C. with gentle agitation. The reaction was started by the addition of 20 μL of a 1:4 dilution of vesicles. The final total reaction volume was 100 μL. The reaction rates were measured on a Gemini plate reader with an excitation wavelength of 488 nm and an emission of 530 nm. Readings were taken every 20 seconds for 10 min with agitation between each reading. The slope of the linear portion of the readout was used to calculate the rate of the reaction.
As to `Nc1c(C(=O)N[C@@H]2CC[C@H](c3ccc(-c4cccc5ncccc45)cc3)C2)[nH]c(=O)[nH]c1=O` [Example 175, 5-amino-2,6-dioxo-N-((1R,3S)-3-(4-(quinolin-5-yl)phenyl)cyclopentyl)-1,2,3,6-tetrahydropyrimidine-4-carboxamide], the IC50 stood at 0.496 µM.

Turning to `O=C(N[C@H]1CC[C@@H](c2ccccc2)CC1)c1[nH]c(=O)[nH]c(=O)c1NCc1cccnc1` [Example 209, 2,6-dioxo-N-(cis-4-phenylcyclohexyl)-5-(pyridin-3-ylmethylamino)-1,2,3,6-tetrahydropyrimidine-4-carboxamide], the IC50 came to 0.512 µM.

The same assay, now with this note: range observed in the EL assay; read-out: EL IC50 values.
For `Nc1c(C(=O)N[C@H]2CCCc3cc(OCc4ccccc4)ccc32)[nH]c(=O)[nH]c1=O` [Example 93, (S)-5-amino-N-(6-(benzyloxy)-1,2,3,4-tetrahydronaphthalen-1-yl)-2,6-dioxo-1,2,3,6-tetrahydropyrimidine-4-carboxamide], the 50% inhibitory concentration (IC50) was no more than 10 µM.

Consider `CO[C@]1(c2ccc(F)cc2)CC[C@@H](NC(=O)c2[nH]c(=O)[nH]c(=O)c2N)CC1` [Example 4, 5-amino-N-(cis-4-(4-fluorophenyl)-4-methoxycyclohexyl)-2,6-dioxo-1,2,3,6-tetrahydropyrimidine-4-carboxamide], for which the IC50 is no more than 10 µM.

In the case of `Nc1c(C(=O)N[C@H]2CCN(c3ccccc3)C2)[nH]c(=O)[nH]c1=O` [Example 192, (S)-5-amino-2,6-dioxo-N-(1-phenylpyrrolidin-3-yl)-1,2,3,6-tetrahydropyrimidine-4-carboxamide], the IC50 is no more than 10 µM.

Consider `O=C(N[C@H]1CCN(c2ccccc2)C1)c1[nH]c(=O)[nH]c(=O)c1O` [Example 274, (S)-5-hydroxy-2,6-dioxo-N-(1-phenylpyrrolidin-3-yl)-1,2,3,6-tetrahydropyrimidine-4-carboxamide], for which the IC50 is no more than 10 µM.

On to `Nc1c(C(=O)N[C@@H]2CC[C@H](c3ccccc3)c3ccccc32)[nH]c(=O)[nH]c1=O` [Example 19, 5-amino-2,6-dioxo-N-((1R,4R)-4-phenyl-1,2,3,4-tetrahydronaphthalen-1-yl)-1,2,3,6-tetrahydropyrimidine-4-carboxamide], for which the IC50 is no more than 10 µM.

For the molecule `Nc1c(C(=O)N[C@@H]2CC[C@H](c3ccc(-c4cccc5ncccc45)cc3)C2)[nH]c(=O)[nH]c1=O` [Example 175, 5-amino-2,6-dioxo-N-((1R,3S)-3-(4-(quinolin-5-yl)phenyl)cyclopentyl)-1,2,3,6-tetrahydropyrimidine-4-carboxamide], the IC50 was no more than 10 µM.

With `Nc1c(C(=O)N[C@@H]2CCc3ccc(C(F)(F)F)cc32)[nH]c(=O)[nH]c1=O` [Example 1, (R)-5-Amino-2,6-dioxo-N-(6-(trifluoromethyl)-2,3-dihydro-1H-inden-1-yl)-1,2,3,6-tetrahydropyrimidine-4-carboxamide], the IC50 is no more than 10 µM.

In the case of `Nc1c(C(=O)N[C@H]2CC[C@@H](OCc3ccccc3)CC2)[nH]c(=O)[nH]c1=O` [Example 95, 5-amino-N-(cis-4-(benzyloxy)cyclohexyl)-2,6-dioxo-1,2,3,6-tetrahydropyrimidine-4-carboxamide], the IC50 was no more than 10 µM.

Take `COC(=O)C[C@H]1C[C@H](NC(=O)c2[nH]c(=O)[nH]c(=O)c2N)c2ccccc2[C@@H]1c1ccccc1` [Example 21, methyl 2-((1S,2R,4S)-4-(5-amino-2,6-dioxo-1,2,3,6-tetrahydropyrimidine-4-carboxamido)-1-phenyl-1,2,3,4-tetrahydronaphthalen-2-yl)acetate]: the IC50 is no more than 10 µM.

For `Cn1nc(C(F)(F)F)cc1-c1ccc([C@H]2CC[C@@H](NC(=O)c3[nH]c(=O)[nH]c(=O)c3N)C2)cc1` [Example 173, 5-amino-N-((1R,3S)-3-(4-(1-methyl-3-(trifluoromethyl)-1H-pyrazol-5-yl)phenyl)cyclopentyl)-2,6-dioxo-1,2,3,6-tetrahydropyrimidine-4-carboxamide], the IC50 is no more than 10 µM.

With `Cn1c(C(=O)N[C@H]2CC[C@@H](c3ccccc3)CC2)c(O)c(=O)[nH]c1=O` [Example 241, 5-Hydroxy-3-methyl-2,6-dioxo-N-(cis-4-phenylcyclohexyl)-1,2,3,6-tetrahydropyrimidine-4-carboxamide], the IC50 is no more than 10 µM.

`Nc1c(C(=O)N[C@H]2CC[C@H](c3ccccc3)C2)[nH]c(=O)[nH]c1=O` [Example 76, 5-amino-2,6-dioxo-N-((1S,3S)-3-phenylcyclopentyl)-1,2,3,6-tetrahydropyrimidine-4-carboxamide]: the 50% inhibitory concentration (IC50) is no more than 10 µM.

As for `O=C(N[C@H]1CC[C@@H](c2ccccc2)CC1)c1[nH]c(=O)n(CCCc2ccccc2)c(=O)c1O` [Example 270, 5-Hydroxy-2,6-dioxo-N-(cis-4-phenylcyclohexyl)-1-(3-phenylpropyl)-1,2,3,6-tetrahydropyrimidine-4-carboxamide], the IC50 was no more than 10 µM.

For the molecule `Cc1nn(C)c(C)c1-c1ccc([C@@H]2CC[C@H](NC(=O)c3[nH]c(=O)[nH]c(=O)c3N)C2)cc1` [Example 159, 5-amino-2,6-dioxo-N-((1S,3R)-3-(4-(1,3,5-trimethyl-1H-pyrazol-4-yl)phenyl)cyclopentyl)-1,2,3,6-tetrahydropyrimidine-4-carboxamide], the IC50 is no more than 10 µM.

`O=C(N[C@H]1CC[C@@H](c2ccccc2)CC1)c1[nH]c(=O)[nH]c(=O)c1NC1CCC1` [Example 233, 5-(cyclobutylamino)-2,6-dioxo-N-(cis-4-phenylcyclohexyl)-1,2,3,6-tetrahydropyrimidine-4-carboxamide]: the IC50 was no more than 10 µM.

For `COc1ccc2c(c1)CCCC2NC(=O)c1[nH]c(=O)[nH]c(=O)c1N` (single isomer, unassigned; enantiomer a) [Example 194, 5-amino-N-(6-methoxy-1,2,3,4-tetrahydronaphthalen-1-yl)-2,6-dioxo-1,2,3,6-tetrahydropyrimidine-4-carboxamide (Enantiomer A)], the IC50 is no more than 10 µM.

For the molecule `COCCOc1ccc(C(=O)N[C@H]2CC[C@@H](NC(=O)c3[nH]c(=O)[nH]c(=O)c3N)CC2)cc1` [Example 120, 5-amino-N-(cis-4-(4-(2-methoxyethoxy)benzamido)cyclohexyl)-2,6-dioxo-1,2,3,6-tetrahydropyrimidine-4-carboxamide], the IC50 is no more than 10 µM.

For the molecule `Nc1c(C(=O)N[C@@H]2CC[C@H](c3ccc(Cl)c(Cl)c3)C2)[nH]c(=O)[nH]c1=O` [Example 74, 5-amino-N-((1R,3S)-3-(3,4-dichlorophenyl)cyclopentyl)-2,6-dioxo-1,2,3,6-tetrahydropyrimidine-4-carboxamide], the IC50 was no more than 10 µM.

`Nc1c(C(=O)N[C@@H]2CCCc3c(NC(=O)c4ccccc4)cccc32)[nH]c(=O)[nH]c1=O` [Example 124, (R)-5-amino-N-(5-benzamido-1,2,3,4-tetrahydronaphthalen-1-yl)-2,6-dioxo-1,2,3,6-tetrahydropyrimidine-4-carboxamide]: the IC50 is no more than 10 µM.

As for `O=C(N[C@H]1CC[C@@H](c2ccccc2)CC1)c1[nH]c(=O)[nH]c(=O)c1NCc1cccnc1` [Example 209, 2,6-dioxo-N-(cis-4-phenylcyclohexyl)-5-(pyridin-3-ylmethylamino)-1,2,3,6-tetrahydropyrimidine-4-carboxamide], the IC50 was no more than 10 µM.

As to `O=C(N[C@@H]1CC[C@@H](C(=O)N[C@H]2CCCc3ccccc32)C1)c1[nH]c(=O)[nH]c(=O)c1O` [Example 298, 5-hydroxy-2,6-dioxo-N-((1R,3R)-3-((S)-1,2,3,4-tetrahydronaphthalen-1-ylcarbamoyl)cyclopentyl)-1,2,3,6-tetrahydropyrimidine-4-carboxamide], the IC50 is no more than 10 µM.

Turning to `O=C(Cc1ccccc1)N[C@H]1CC[C@@H](NC(=O)c2[nH]c(=O)[nH]c(=O)c2O)CC1` [Example 279, 5-hydroxy-2,6-dioxo-N-(cis-4-(2-phenylacetamido)cyclohexyl)-1,2,3,6-tetrahydropyrimidine-4-carboxamide], the IC50 was no more than 10 µM.

Regarding `Nc1c(C(=O)NC2CCN(c3ccccc3)C2)[nH]c(=O)[nH]c1=O` (stereo not drawn) [Example 182, 5-amino-2,6-dioxo-N-(1-phenylpyrrolidin-3-yl)-1,2,3,6-tetrahydropyrimidine-4-carboxamide], the half-maximal inhibitory concentration (IC50) was no more than 10 µM.

Regarding `Nc1c(C(=O)N[C@@H]2CCCc3cc(NC(=O)c4ccccc4)ccc32)[nH]c(=O)[nH]c1=O` [Example 105, (R)-5-amino-N-(6-benzamido-1,2,3,4-tetrahydronaphthalen-1-yl)-2,6-dioxo-1,2,3,6-tetrahydropyrimidine-4-carboxamide], the IC50 was no more than 10 µM.

For `Nc1c(C(=O)NC2CCCN(c3ncccc3Cl)C2)[nH]c(=O)[nH]c1=O` (stereo not drawn) [Example 183, 5-amino-N-(1-(3-chloropyridin-2-yl)piperidin-3-yl)-2,6-dioxo-1,2,3,6-tetrahydropyrimidine-4-carboxamide], the IC50 is no more than 10 µM.
